In publication doi:10.1101/2025.11.24.689453v1, “Structural basis of stereochemical promiscuity by an umami taste receptor ortholog, Tas1r1/Tas1r3 from pufferfish” (biorxiv, 2025):

What was measured:
[1] = biological target: T1, pufferfish Tas1r1/Tas1r3LBD ("wild-type", free-cysteine eliminated) (Takifugu rubripes, UniProt Q2MHJ8+Q2MHK1, Q2MHJ8:C238S/Q2MHK1:C242S); assay: differential scanning fluorimetry; format: binding; settings: read-out: Kd-app
T1 construct: Tas1r1 Met1-Ser501 with C-terminal PA tag, Tas1r3 Met1-Ser496 with C-terminal FLAG tag; Endo H treated for crystals
Text: (§1) differential scanning fluorimetry on pufferfish Tas1r1/Tas1r3LBD ("wild-type", free-cysteine eliminated)

[2] = biological target: T2, full-length pufferfish Tas1r1/Tas1r3 (Takifugu rubripes, UniProt Q2MHJ8+Q2MHK1); assay: luminometric Ca2+ response (mt-clytin-II), HEK293T; format: cell-based; settings: agonist
T2 construct: full-length heterodimer, transiently expressed in HEK293T with rat G15i2 and mt-apoclytin-II
T2 sequence (Q2MHK1 25-845): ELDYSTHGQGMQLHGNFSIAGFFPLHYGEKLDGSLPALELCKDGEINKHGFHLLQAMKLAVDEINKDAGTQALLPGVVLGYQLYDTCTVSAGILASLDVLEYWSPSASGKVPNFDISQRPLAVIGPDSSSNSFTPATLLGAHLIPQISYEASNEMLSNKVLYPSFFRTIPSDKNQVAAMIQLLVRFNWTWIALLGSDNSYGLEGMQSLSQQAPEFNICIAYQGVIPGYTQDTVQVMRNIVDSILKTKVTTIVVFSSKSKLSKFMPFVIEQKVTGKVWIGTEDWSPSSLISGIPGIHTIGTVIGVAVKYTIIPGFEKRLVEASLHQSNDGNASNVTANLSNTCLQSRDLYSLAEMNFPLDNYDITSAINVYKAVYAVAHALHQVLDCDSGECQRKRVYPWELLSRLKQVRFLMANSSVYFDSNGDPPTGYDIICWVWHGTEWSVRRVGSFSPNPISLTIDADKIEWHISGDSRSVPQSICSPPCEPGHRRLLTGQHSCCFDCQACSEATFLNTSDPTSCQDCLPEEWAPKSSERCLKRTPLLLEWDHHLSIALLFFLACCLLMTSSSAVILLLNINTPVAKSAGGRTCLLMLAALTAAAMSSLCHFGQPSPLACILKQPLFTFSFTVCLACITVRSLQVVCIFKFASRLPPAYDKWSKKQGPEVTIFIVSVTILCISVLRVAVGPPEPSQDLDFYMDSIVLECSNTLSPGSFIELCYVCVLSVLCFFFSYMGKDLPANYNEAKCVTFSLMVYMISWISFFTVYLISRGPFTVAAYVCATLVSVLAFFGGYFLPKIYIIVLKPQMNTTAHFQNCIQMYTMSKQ
T2 sequence (Q2MHJ8 20-853): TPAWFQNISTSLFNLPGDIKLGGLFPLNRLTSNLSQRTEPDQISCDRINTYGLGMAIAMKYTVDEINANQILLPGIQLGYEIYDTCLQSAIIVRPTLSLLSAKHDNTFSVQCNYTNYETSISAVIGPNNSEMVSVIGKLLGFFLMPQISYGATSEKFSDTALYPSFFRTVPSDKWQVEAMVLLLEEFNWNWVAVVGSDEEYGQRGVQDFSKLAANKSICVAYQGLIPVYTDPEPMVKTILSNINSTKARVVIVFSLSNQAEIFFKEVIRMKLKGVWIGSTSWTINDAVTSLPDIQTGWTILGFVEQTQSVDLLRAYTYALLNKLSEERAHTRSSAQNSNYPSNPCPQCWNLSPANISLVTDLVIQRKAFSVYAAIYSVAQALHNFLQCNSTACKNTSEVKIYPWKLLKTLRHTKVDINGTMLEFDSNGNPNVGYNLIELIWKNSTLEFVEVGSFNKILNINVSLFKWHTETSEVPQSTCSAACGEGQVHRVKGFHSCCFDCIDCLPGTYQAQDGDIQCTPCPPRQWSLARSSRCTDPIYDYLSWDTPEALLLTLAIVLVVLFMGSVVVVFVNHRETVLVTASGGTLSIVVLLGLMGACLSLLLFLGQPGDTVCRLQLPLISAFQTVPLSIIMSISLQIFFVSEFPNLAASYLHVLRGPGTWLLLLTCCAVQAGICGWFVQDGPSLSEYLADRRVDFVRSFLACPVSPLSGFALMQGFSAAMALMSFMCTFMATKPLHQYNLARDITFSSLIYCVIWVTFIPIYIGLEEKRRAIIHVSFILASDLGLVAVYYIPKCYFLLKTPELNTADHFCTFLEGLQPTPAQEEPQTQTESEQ

[3] = biological target: T3, pufferfish Tas1r1/Tas1r3LBD ("wild-type", free-cysteine eliminated) (Takifugu rubripes, UniProt Q2MHJ8+Q2MHK1, Q2MHJ8:C238S/Q2MHK1:C242S/Q2MHK1:D306A); assay: differential scanning fluorimetry; format: binding; settings: read-out: Kd-app
T3 construct: Tas1r1 Met1-Ser501 with C-terminal PA tag, Tas1r3 Met1-Ser496 with C-terminal FLAG tag; Endo H treated for crystals
Text: as §1

[4] = biological target: T4, pufferfish Tas1r1/Tas1r3LBD ("wild-type", free-cysteine eliminated) (Takifugu rubripes, UniProt Q2MHJ8+Q2MHK1, Q2MHJ8:C238S/Q2MHK1:C242S/Q2MHK1:E174A); assay: differential scanning fluorimetry; format: binding; settings: read-out: Kd-app
T4 construct: Tas1r1 Met1-Ser501 with C-terminal PA tag, Tas1r3 Met1-Ser496 with C-terminal FLAG tag; Endo H treated for crystals
Text: as §1

[5] = biological target: T5, pufferfish Tas1r1/Tas1r3LBD ("wild-type", free-cysteine eliminated) (Takifugu rubripes, UniProt Q2MHJ8+Q2MHK1, Q2MHJ8:C238S/Q2MHK1:C242S/Q2MHK1:R469V); assay: differential scanning fluorimetry; format: binding; settings: read-out: Kd-app
T5 construct: Tas1r1 Met1-Ser501 with C-terminal PA tag, Tas1r3 Met1-Ser496 with C-terminal FLAG tag; Endo H treated for crystals
Text: as §1

[6] = biological target: T6, pufferfish Tas1r1/Tas1r3LBD ("wild-type", free-cysteine eliminated) (Takifugu rubripes, UniProt Q2MHJ8+Q2MHK1, Q2MHJ8:C238S/Q2MHK1:C242S/Q2MHK1:Y385F); assay: differential scanning fluorimetry; format: binding; settings: read-out: Kd-app
T6 construct: Tas1r1 Met1-Ser501 with C-terminal PA tag, Tas1r3 Met1-Ser496 with C-terminal FLAG tag; Endo H treated for crystals
Text: as §1

[7] = biological target: T1, pufferfish Tas1r1/Tas1r3LBD ("wild-type", free-cysteine eliminated); assay: X-ray crystal structure; DSF; format: binding; settings: orthosteric site in both subunits

Row | SMILES | Kd [1] [µM] | response at 50 mM [2] | Kd [3] [mM] | Kd [4] [µM] | Kd [5] [mM] | Kd [6] [mM] | X-ray crystal structure; DSF [7]
1 | CC(C)(N)C(=O)O [2-methylalanine] | 1290 ± 140 | – | – | – | – | – | –
2 | C[C@@H](N)C(=O)O [D-alanine] | 1440 ± 90 | D-alanine and D-phenylalanine demonstrated a relatively high extent of binding and evoked low | 3.14 ± 0.91 | 1690 ± 460 | 1.88 ± 0.14 | 1.98 ± 0.12 | –
3 | N[C@H](Cc1ccccc1)C(=O)O [D-phenylalanine] | – | D-alanine and D-phenylalanine demonstrated a relatively high extent of binding and evoked low | – | – | – | – | D-phenylalanine-bound Tas1r1/Tas1r3LBD structure also adopts a compact dimerization manner
4 | C[C@H](N)C(=O)O [L-alanine] | 126 ± 7 | The receptor bound and responded to a wide range of L-amino acids, including L-alanine | 0.0979 ± 0.0225 | 61.4 ± 17.7 | 0.203 ± 0.013 | 0.186 ± 0.013 | –
5 | CN[C@@H](C)C(=O)O [N-methyl-L-alanine] | 345 ± 8 | – | – | – | – | – | –
